For one data set, the system named is microglia. The note with it: by decreasing TROY expression; cited from earlier work.
A further data set concerns AKT. The data set can be described thus: Immunoblot of AKT activation after PPF. In kind it is cell-based, human. The note with it: T98G and GBM43 cells treated with PPF. As for the experimental part:
(§1) FIGS. 26A, 26B, and 26C depict that PPF sensitizes GBM cells to TMZ and radiotherapy. FIG. 26A—A clonogenic assay was used to assess T98G and GBM43 cells survival after TMZ and radiation treatment. Cells were pre-treated with 5 μM PPF for 24 hours, and then either treated with 250 μM TMZ for 24 hours or exposed to 2 Gy radiation. Graph depicts the surviving fraction in the treated cells compared to vehicle (VC) treated or non-treated (NT) cells, **p<0.01. FIG. 26B—T98G glioma cells were treated with vehicle, PPF (5 μM) TMZ (250 μM) and PPF in combination with TMZ. TMZ-induced apoptosis was assayed by immunoblot analysis of cell lysates with an antibody to cleaved PARP. Immunoblotting for α-Tubulin was included as a loading control. FIG. 26C—T98G, GBM10, and GBM43 cells were treated with PPF ([…], and then immunoblotted to assess the activation of AKT and NF-κB. Immunoblotting for β-Actin is included as a loading control.
(§2) Referring now to FIGS. 26A, 26B, and 26C: Knockdown of TROY expression with shRNA decreases TMZ resistance in GBM cells in vitro (See Reference 42). […] Following combination therapy, cells were trypsinized, counted, and plated in a 6-well culture dish at densities of 100, 250, and 500 cells per well in triplicate. Cells were incubated for 12 days then fixed, stained with 0.5% crystal violet solution, and counted manually by blinded observers. […]

For data set [1], the system named is T98G, GBM10, and GBM43 glioma cells. The data set can be described thus: Matrigel invasion assay. The note with it: 5 μM PPF, 24 hours, 10% FBS. In kind it is cell-based, human. As for the experimental part:
FIGS. 27A and 27B depict that PPF suppresses GBM cell invasion and Rac1 activation. FIG. 27A—T98G, GBM10, and GBM43 glioma cells were treated with 5 μM PPF and invasion was assayed over 24 hours utilizing a Matrigel® invasion assay, *p<0.05. FIG. 27B—T98G glioma cells were serum starved, pre-incubated with 5 μM PPF or vehicle for 1 hour, and then stimulated with 10% FBS for 2-10 mins. Cell lysates were harvested and equal concentrations of protein were assessed for Rac1 activation.
Referring now to FIGS. 27A and 27B: The inventors next examined whether PPF inhibited TROY dependent glioma cell invasion. […] Briefly, 5.0×10^5 cells glioma cells were seeded in 100-mm diameter culture dishes and incubated overnight at 37° C. Subsequently, cells were serum starved for 16 hours at 37° C. Cells were then harvested, re-suspended in growth factor reduced Matrigel® (Becton Dickinson) (1.0×10^5 cells/50 μL), added in triplicates to collagen-coated transwell chambers, and allowed to invade through Matrigel® in presence of 10% FBS and/or 5 μM PPF. After incubation for 24 hours at 37° C. non-invaded cells were scrapped off the upper side of the membrane and cells invaded to the other side of the membrane were fixed with 4% paraformaldehyde (PFA) (Affymetrix) and stained with DAPI (Invitrogen). Nuclei of invaded cells were counted in five high power fields (HPF) with a 20× objective.

The subject of the next data set is T98G cells. The data set can be described thus: EGF-stimulated transwell migration assay. In kind it is cell-based, human. The note with it: serum starved T98G, PPF one hour prior to EGF (10 ng/mL), 24 hours. On the procedure:
FIG. 33 depicts the impact of PPF treatment on EGF-stimulated glioma cell migration. Serum starved T98G cells were treated with PPF at various concentrations one hour prior to EGF addition (10 ng/mL). Cell migration was assessed using the transwell migration assay after 24 hours. *p<0.001; **p<0.01.
Thus, the capacity of TROY to stimulate glioma cell invasion and increase TMZ and IR resistance could rely on the formation of a TROY-EGFR signaling complex. This association could activate, or potentiate, shared signaling pathways survival pathways as well as activate distinct TROY signaling pathways that mediate TROY receptor specific functional activities. Therefore, therapeutic approaches targeting TROY and/or both receptors may yield increased therapeutic benefit.

Another data set has as its system CNS-1 rat model. The note with it: systemic PPF treatment; cited from earlier work.
For data set [2], the system named is T98G, GBM10, and GBM43 cells. The data set can be described thus: Lamellipodia formation and membrane ruffling (F-actin staining). In kind it is cell-based, human. The note with it: 5 μM PPF 1 hour prior to 10% FBS for 5 min. As for the experimental part:
FIGS. 28A and 28B depict that PPF suppresses GBM cell membrane ruffling. FIG. 28A—GBM43 cells were preincubated with 5 μM PPF or vehicle for 1 hour prior to 10% FBS stimulation for 5 min. After FBS stimulation, cells were fixed, permeabilized, and stained for F-actin. For each experimental condition, at least 12 images were taken randomly. Arrowhead indicates membrane ruffles. FIG. 28B—Graph depicts the average lamellipodia in T98G, GBM10, and GBM43 cells in the presence or absence of 10% FBS with or without 5 μM PPF as indicated. Lamellipodia were traced using Image J software.
Referring now to FIGS. 28A and 28B: The inventors investigated lamellipodia formation and membrane ruffling. Briefly, glioma cells were plated onto 10-well glass slides pre-coated with 10 μg/ml laminin at the density of 3000 cells/well for 24 hours at 37° C. Subsequently, cells were serum starved for 16 hours. The cells were pre-incubated with 5 μM PPF or vehicle for 1 hour prior to 10% FBS stimulation for 5 min. After FBS stimulation, cells were fixed in 4% PFA, permeabilized with 0.1% Triton X-100, and incubated with Alexa Fluor® 555 Phalloidin (Invitrogen) to stain for F-actin. Slides were mounted with ProLong® reagent with DAPI and imaged using a Zeiss LSM 510 microscope. For each experimental condition, at least 12 images were randomly taken. Lamellipodia were traced using ImageJ software.

The next data set deals with T98G and GBM43 cells. The data set can be described thus: Clonogenic survival assay, PPF with TMZ or radiation. In kind it is cell-based, human. On the procedure:
as §1, §2

The conditions of data set [3]: clinical trials for Alzheimer's disease and vascular dementia; cited from earlier work.

With `CCCn1cnc2c1c(=O)n(CCCCC(C)=O)c(=O)n2C` [PPF, 3-methyl-1-(5-oxohexyl)-7-propyl-3,7-dihydro-1H-purine-2,6-dione], the migration of microglia result with microglia is “inhibit the migration of microglia”. Also, the AKT phosphorylation entry in the data set on AKT was “effectively decreased”. Moreover, the glioma cell invasion result in data set [1] is reported as “significantly inhibited glioma cell invasion”. For the same compound, the “EGF-stimulated glioma cell migration” value in the data set on T98G cells is on record as “reduced EGF-stimulated glioma cell migration”. Besides, the tumor growth result with CNS-1 rat model is recorded as “decreased tumor growth”. Further, the “lamellipodia formation and membrane ruffling” value in data set [2] was “significantly decreased”. In addition, the surviving fraction entry with T98G and GBM43 cells (5 μM PPF 24 hours then 250 μM TMZ 24 hours, compared to TMZ alone, T98G and GBM43) is recorded as “significantly decreased the surviving fraction”; in the data set on T98G and GBM43 cells (5 μM PPF 24 hours then 2Gy radiation, compared to 2Gy radiation alone), “significantly decreased the surviving fraction”. Besides, the side effect profile result in data set [3] is on record as “minimal side effect profile”.

The record behind these values is patent US10624895B2, “Methods of sensitizing a patient with glioma to a therapeutic agent by administering small hairpin RNA targeting PDZ-RHOGEF” (THE TRANSLATIONAL GENOMICS RESEARCH INSTITUTE, priority 2016, dated 2020).
